“Also recorded” adds a separate entry of the source.
Assays:
[1] = tested on: Escherichia coli WP2uvrA; test: Bacterial reverse mutation (Ames) assay, plate incorporation
Procedure: (§1) Pretomanid and metabolite M50 were evaluated over a range of concentrations, with and without an added metabolic activation system, in five tester strains: Salmonella typhimurium histidine auxotrophs TA98, TA100, TA1535, and TA1537 [9] and the Escherichia coli tryptophan auxotroph WP2uvrA. S. typhimurium strains were received from Dr. Bruce Ames, Department of Biochemistry, University of California (Berkeley, CA). The E. coli strain was received from The National Collection of Industrial Bacteria, Torrey Research Station, Aberdeen, Scotland (United Kingdom). The metabolic activation system was a liver homogenate (S9) mix. The S9 component was prepared from male Sprague-Dawley rats that had been injected (intraperitoneally) with Aroclor^TM 1254 at 500 mg/kg, 5 days before sacrifice. The S9 mix was prepared immediately before use and contained 10% S9, 5 mM glucose-6-phosphate, 4 mM β-nicotinamide adenine dinucleotide phosphate, 8 mM MgCl2 and 33 mM KCl in a 100 mM phosphate buffer at pH 7.4. Pretomanid was tested at 0.05 to 5000 μg/plate. Metabolite M50 was tested at 78 to 2500 μg/plate. A negative (solvent) control culture and appropriate positive control cultures were included in each assay.
(§2) Bacteria were exposed to test materials by the plate incorporation method originally described by Ames et al and updated by Maron and Ames. Bottom agar was Vogel-Bonner minimal medium E [12] with 1.5% (w/v) agar, and the top Agar was 0.7% (w/v) agar and 0.5% (w/v) NaCl. After incubation, cultures were evaluated using a dissecting microscope for precipitation or cytotoxicity, and revertant colonies were counted. The mean numbers of revertant colonies in various cultures were compared to reach conclusions about assay validity and mutagenic potential. For the test article to be evaluated positive, it must cause a dose-related increase in the mean revertants per plate of at least one tester strain with a minimum of two increasing concentrations of test article.

[2] = tested on: Salmonella typhimurium TA1535; test: as above; assay type: cell-based
Procedure: as §1, §2

[3] = tested on: Salmonella typhimurium TA1537; test: as above; assay type: cell-based
Procedure: as §1, §2

[4] = tested on: Salmonella typhimurium TA100; test: as above; assay type: cell-based
Procedure: as §1, §2

[5] = tested on: Salmonella typhimurium TA98; test: as above; assay type: cell-based
Procedure: as §1, §2

[6] = tested on: Salmonella typhimurium TA98, TA100, TA1535, TA1537 and Escherichia coli WP2uvrA; test: Bacterial reverse mutation (Ames) assay, overall over five tester strains; assay type: cell-based; conditions: up to 2500 μg/plate
Procedure: as §1, §2

[7] = Toxicokinetic assessment in wild-type CByB6F1 mice (Day 14); assay type: in vivo; conditions: for Mouse M50 AUC0-24 as multiple of estimated human M50 AUC0-24: highest dose, human 200 mg/day
Procedure: TK animals were included for the vehicle control (n = 4 sex) and pretomanid-treated groups (n = 10 sex/group). The TK cohort animals were dosed by oral gavage once daily for 14 consecutive days.
Toxicokinetic blood samples (300 μL for males and 250 μL for females) were collected in K3EDTA tubes after 14 doses from the TK cohort via retro-orbital bleeding under 70% CO2/30% O2 anesthesia. On Day 14, control mice were bled once 2 hours after dosing. On Day 14 and 15, Pretomanid-treated mice were bled predose, 0.5, 1, 3, 6, and 24 hours post dose. TK animals were euthanized after their final blood collection.
Collected blood was stored on wet ice until the samples were processed to plasma. Blood samples were centrifuged at 4±2°C and 8000 g for 5 minutes. Plasma was snap frozen in liquid nitrogen and stored in a deep freezer (≤−60°C) within 60 minutes of bleeding the TK animals.
Pretomanid and the M50 metabolite were quantified in mouse plasma by liquid chromatography-tandem mass spectrometry (LC-MS/MS) after protein precipitation. Aliquots of 25 µL of plasma were spiked with internal standards (PA-824-d5 or morphine) and proteins were precipitated in 1% formic acid in acetonitrile. A partial supernatant from each sample was transferred to a clean plate and diluted in acetonitrile/water (40:60) for pretomanid and deionized water for M50. Supernatant was analyzed for pretomanid or M50 using validated LC-MS/MS methods with a linear range of 20 to 10,000 ng/mL for pretomanid and 10 to 5,000 ng/mL for M50 (methods validated at Alliance Pharma, Malvern PA).
Sample collection time and plasma concentration data were analyzed to derive TK parameters by standard model independent methods based on the mean plasma concentration-time data for each dose group. The TK analyses of the plasma concentration profiles were performed using non-compartmental analysis in Phoenix WinNonlin Professional 7.0 (Certara, L.P., St. Louis, MO, USA). Concentration values below the lower limit of quantitation were treated as zeros for analysis purposes.

Structure (SMILES): O=[N+]([O-])c1cn2c(n1)OC[C@@H](O)C2 [M50]
- Mean Number of Revertants/Plate ([1]; WP2uvrA +S9, 78 μg/plate): 18 Revertants/Plate
- Mean Number of Revertants/Plate ([1]; WP2uvrA +S9, 156 μg/plate): 17 Revertants/Plate
- Mean Number of Revertants/Plate ([1]; WP2uvrA +S9, 313 μg/plate): 23 Revertants/Plate
- Mean Number of Revertants/Plate ([1]; WP2uvrA +S9, 625 μg/plate): 48 Revertants/Plate
- Mean Number of Revertants/Plate ([1]; WP2uvrA +S9, 1250 μg/plate): 50 Revertants/Plate
- Mean Number of Revertants/Plate ([1]; WP2uvrA +S9, 2500 μg/plate): 50 Revertants/Plate
- Mean Number of Revertants/Plate ([1]; WP2uvrA −S9, 78 μg/plate): 18 Revertants/Plate
- Mean Number of Revertants/Plate ([1]; WP2uvrA −S9, 156 μg/plate): 24 Revertants/Plate
- Mean Number of Revertants/Plate ([1]; WP2uvrA −S9, 313 μg/plate): 26 Revertants/Plate
- Mean Number of Revertants/Plate ([1]; WP2uvrA −S9, 625 μg/plate): 29 Revertants/Plate
- Mean Number of Revertants/Plate ([1]; WP2uvrA −S9, 1250 μg/plate): 49 Revertants/Plate
- Mean Number of Revertants/Plate ([1]; WP2uvrA −S9, 2500 μg/plate): 71 Revertants/Plate
- Change in revertant colonies ([1]; WP2uvrA, presence and absence of S9): significant increases
- Mean Number of Revertants/Plate ([2]; TA1535 +S9, 78 μg/plate): 12 Revertants/Plate
- Mean Number of Revertants/Plate ([2]; TA1535 +S9, 156 μg/plate): 15 Revertants/Plate
- Mean Number of Revertants/Plate ([2]; TA1535 +S9, 313 μg/plate): 31 Revertants/Plate
- Mean Number of Revertants/Plate ([2]; TA1535 +S9, 625 μg/plate): 42 Revertants/Plate
- Mean Number of Revertants/Plate ([2]; TA1535 +S9, 1250 μg/plate): 67 Revertants/Plate
- Mean Number of Revertants/Plate ([2]; TA1535 +S9, 2500 μg/plate): 81 Revertants/Plate
- Change in revertant colonies ([2]; TA1535, presence and absence of S9): significant increases
- Mean Number of Revertants/Plate ([2]; TA1535 −S9, 78 μg/plate): 20 Revertants/Plate
- Mean Number of Revertants/Plate ([2]; TA1535 −S9, 156 μg/plate): 16 Revertants/Plate
- Mean Number of Revertants/Plate ([2]; TA1535 −S9, 313 μg/plate): 19 Revertants/Plate
- Mean Number of Revertants/Plate ([2]; TA1535 −S9, 625 μg/plate): 24 Revertants/Plate
- Mean Number of Revertants/Plate ([2]; TA1535 −S9, 1250 μg/plate): 43 Revertants/Plate
- Mean Number of Revertants/Plate ([2]; TA1535 −S9, 2500 μg/plate): 60 Revertants/Plate
- Mean Number of Revertants/Plate ([3]; TA1537 +S9, 78 μg/plate): 9 Revertants/Plate
- Mean Number of Revertants/Plate ([3]; TA1537 +S9, 156 μg/plate): 12 Revertants/Plate
- Mean Number of Revertants/Plate ([3]; TA1537 +S9, 313 μg/plate): 8 Revertants/Plate
- Mean Number of Revertants/Plate ([3]; TA1537 +S9, 625 μg/plate): 14 Revertants/Plate
- Mean Number of Revertants/Plate ([3]; TA1537 +S9, 1250 μg/plate): 20 Revertants/Plate
- Mean Number of Revertants/Plate ([3]; TA1537 +S9, 2500 μg/plate): 11 Revertants/Plate
- Change in revertant colonies ([3]; TA1537, absence of S9): significant increases
- Mean Number of Revertants/Plate ([3]; TA1537 −S9, 78 μg/plate): 8 Revertants/Plate
- Mean Number of Revertants/Plate ([3]; TA1537 −S9, 156 μg/plate): 13 Revertants/Plate
- Mean Number of Revertants/Plate ([3]; TA1537 −S9, 313 μg/plate): 7 Revertants/Plate
- Mean Number of Revertants/Plate ([3]; TA1537 −S9, 625 μg/plate): 13 Revertants/Plate
- Mean Number of Revertants/Plate ([3]; TA1537 −S9, 1250 μg/plate): 10 Revertants/Plate
- Mean Number of Revertants/Plate ([3]; TA1537 −S9, 2500 μg/plate): 18 Revertants/Plate
- Mean Number of Revertants/Plate ([4]; TA100 +S9, 78 μg/plate): 132 Revertants/Plate
- Mean Number of Revertants/Plate ([4]; TA100 +S9, 156 μg/plate): 125 Revertants/Plate
- Mean Number of Revertants/Plate ([4]; TA100 +S9, 313 μg/plate): 252 Revertants/Plate
- Mean Number of Revertants/Plate ([4]; TA100 +S9, 625 μg/plate): 312 Revertants/Plate
- Mean Number of Revertants/Plate ([4]; TA100 +S9, 1250 μg/plate): 666 Revertants/Plate
- Mean Number of Revertants/Plate ([4]; TA100 +S9, 2500 μg/plate): 758 Revertants/Plate
- Change in revertant colonies ([4]; TA100, presence and absence of S9): significant increases
- Mean Number of Revertants/Plate ([4]; TA100 −S9, 78 μg/plate): 120 Revertants/Plate
- Mean Number of Revertants/Plate ([4]; TA100 −S9, 156 μg/plate): 135 Revertants/Plate
- Mean Number of Revertants/Plate ([4]; TA100 −S9, 313 μg/plate): 203 Revertants/Plate
- Mean Number of Revertants/Plate ([4]; TA100 −S9, 625 μg/plate): 294 Revertants/Plate
- Mean Number of Revertants/Plate ([4]; TA100 −S9, 1250 μg/plate): 588 Revertants/Plate
- Mean Number of Revertants/Plate ([4]; TA100 −S9, 2500 μg/plate): 868 Revertants/Plate
- Mean Number of Revertants/Plate ([5]; TA98 +S9, 78 μg/plate): 18 Revertants/Plate
- Mean Number of Revertants/Plate ([5]; TA98 +S9, 156 μg/plate): 19 Revertants/Plate
- Mean Number of Revertants/Plate ([5]; TA98 +S9, 313 μg/plate): 22 Revertants/Plate
- Mean Number of Revertants/Plate ([5]; TA98 +S9, 625 μg/plate): 25 Revertants/Plate
- Mean Number of Revertants/Plate ([5]; TA98 +S9, 1250 μg/plate): 24 Revertants/Plate
- Mean Number of Revertants/Plate ([5]; TA98 +S9, 2500 μg/plate): 38 Revertants/Plate
- Change in revertant colonies ([5]; TA98, presence of S9): significant increases
- Mean Number of Revertants/Plate ([5]; TA98 −S9, 78 μg/plate): 13 Revertants/Plate
- Mean Number of Revertants/Plate ([5]; TA98 −S9, 156 μg/plate): 16 Revertants/Plate
- Mean Number of Revertants/Plate ([5]; TA98 −S9, 313 μg/plate): 14 Revertants/Plate
- Mean Number of Revertants/Plate ([5]; TA98 −S9, 625 μg/plate): 17 Revertants/Plate
- Mean Number of Revertants/Plate ([5]; TA98 −S9, 1250 μg/plate): 21 Revertants/Plate
- Mean Number of Revertants/Plate ([5]; TA98 −S9, 2500 μg/plate): 33 Revertants/Plate
- Precipitate or cytotoxicity in the Ames assay ([6]; single non-GLP assay): no precipitate or cytotoxicity at any concentration
- Mutagenic potential ([6]; with and without S9, non-GLP): genotoxic; also recorded: positive
- Exposure to M50 metabolite relative to pretomanid ([7]; all dose levels, both sexes): less than 10%
- AUC(0-t) ([7]; female, CByB6F1 (wild-type), mouse, plasma, oral, 80 mg/kg/day, females, highest dose in the carcinogenicity study, read-out: Mean M50 AUC0-24): 10.2 µg·h/mL
- Mouse M50 AUC0-24 as multiple of estimated human M50 AUC0-24 ([7]; females): approximately 3 X
- Mean M50 AUC0-24 ([7]; males, highest dose in the carcinogenicity study): 4.6 µg·h/mL
- Mouse M50 AUC0-24 as multiple of estimated human M50 AUC0-24 ([7]; males): approximately 1.5 X

Reference: publication PMC9411704, “Assessment of the Carcinogenic Potential of Pretomanid in Transgenic Tg.rasH2 Mice” (International Journal of Toxicology, 2022)
